Data taken from the NIST ThermoML archive (doi:10.1016/j.tca.2005.11.005).

Experiment: molar heat capacity at constant pressure; xn = mol fraction of the nth substance listed
Details: 101 kPa, Crystal, Small sample (50 mg) DSC

[Ce+4].[O-2].[O-2] [ceric oxide] + [O-2].[O-2].[U+4]
molar heat capacity at constant pressure [J/K/mol]
Details | 298 K | 300 K | 400 K | 500 K | 600 K | 700 K | 800 K
x2 = 0 | 62.6 | 62.7 | 68.8 | 73 | 76.5 | 78.6 | 79.3
x2 = 0.197 | 62.8 | 64 | 73.3 | 81.2 | 84.6 | 84.5 | 85.2
x2 = 0.491 | 64.2 | 64.8 | 76.8 | 85.9 | 89.2 | 89.6 | 88.3
x2 = 0.809 | 70.1 | 70.4 | 79.7 | 86 | 88.9 | 90.3 | 92

[O-2].[O-2].[U+4] [uranium dioxide] + [Ce+4].[O-2].[O-2]
x1 = 1
Details | molar heat capacity at constant pressure [J/K/mol]
298 K | 64
300 K | 64.1
400 K | 72.7
500 K | 77.5
600 K | 80.4
700 K | 82.6
800 K | 85.9
